Earlier results in patent publication US20240041741A1, “COSMETIC COMPOSITION OBTAINED BY MIXING TWO SILANE BLENDS” (Henkel AG & Co. KGaA, priority 2020, published 2024).

Details: for solubility in water: 25° C.

solubility in water (in words) (at 25° C.)	Molecule	solubility in water
–	O=S(=O)([O-])c1ccc(N=Nc2c(O)ccc3ccccc23)cc1.[Na+] [Acid Orange 7, sodium salt of 4-[(2-hydroxy-1-naphthyl)azo]benzene sulphonate]	more than 7 g/L
–	Nc1cc(S(=O)(=O)[O-])cc2cc(S(=O)(=O)[O-])c(N=Nc3ccccc3)c(O)c12.[Na+].[Na+] [Acid Red 33, diantrium salt of 5-amino-4-hydroxy-3-(phenylazo)-naphthalene-2,7-disulphonate]	2.5 mg/mL
–	O=C([O-])c1c(Cl)c(Cl)c(Cl)c(Cl)c1-c1c2c(Br)cc(=O)c(Br)c-2oc2c(Br)c(O)cc(Br)c12.O=C([O-])c1c(Cl)c(Cl)c(Cl)c(Cl)c1-c1c2c(Br)cc(=O)c(Br)c-2oc2c(Br)c(O)cc(Br)c12.[Na+].[Na+] [Acid Red 92, disodium salt of 3,4,5,6-tetrachloro-2-(1,4,5,8-tetrabromo-6-hydroxy-3-oxoxanthen-9-yl)benzoic acid]	greater than 10 g/L
readily soluble in water	O=C([O-])C1=NN(c2ccc(S(=O)(=O)[O-])cc2)C(=O)C1N=Nc1ccc(S(=O)(=O)[O-])cc1.[Na+].[Na+].[Na+] (centres unmarked) [Acid Yellow 23, trisodium salt of 4,5-dihydro-5-oxo-1-(4-sulfophenyl)-4-((4-sulfophenyl)azo)-1H-pyrazole-3-carboxylic acid]	–
–	mixture of the sodium salts of mono- and sisulfonic acids of 2-(2-quinolyl)-1H-indene-1,3(2H)-dione [Acid Yellow 3]	20 mg/mL
